One data set concerns lysosomal compartment. The experiment in a line: LysoTracker staining of VeroTA6 cells.
Data set [1] deals with SARS-CoV-2-nLUC. The experiment in a line: microbe, parasite or virus in culture. The format is cell-based. The settings on record: for EC50: Severe acute respiratory syndrome coronavirus 2, Vero C1008, 24 h, VeroE6, 24 h, Fig 1G, Fig 5B, read-out: EC50.
The next data set deals with SARS-CoV-2. The class given is cell-based. Details: TOA: unit not given here.
For data set [2], the system named is FTase (HDJ2 farnesylation). The experiment in a line: HDJ2 electrophoretic mobility shift (Western blot). The class given is cell-based. The settings on record: 24 h treatment. Background: Mobility shift assays separate free from complexed probe on a gel.
The nature of a further data set: in vitro. The settings on record: African green monkey.
The test system of data set [3] is VSV-SARS-CoV-2-S pseudovirus. The experiment in a line: microbe, parasite or virus in culture. The format is cell-based.
The subject of another data set is HEK293A2T2 cells. The settings on record: initial screening.
Another data set concerns Huh7 cells. The settings on record: initial screening.
In data set [4] the test system is SARS-CoV-2-nLUC. The class given is cell-based.
Data set [5] concerns SARS-CoV-2-nLUC. The format is cell-based. The settings on record: Nirmatrelvir 5 uM, Lonafarnib 0 uM.
The test system of data set [6] is SARS-CoV-2 strain USA-WA1/2020. The format is in vivo, mouse. The settings on record: mouse, in vivo.
Data set [7] has as its system SARS-CoV-2 strain USA-WA1/2020. The format is in vivo, mouse. The settings on record: mouse, in vivo. This is another data set of the same source.
The target in a further data set is viral RdRp (Severe acute respiratory syndrome coronavirus 2, UniProt P0DTD1). The experiment in a line: In vitro RdRp activity assay (RNA extension). The format is biochemical, SARS-CoV-2. The following applies: LNF 0.1, 1 and 10 μM; TEMPOL 100 μM.

Where “and” joins values, the source holds several entries; their conditions need not be identical. Equal values may be shown once. Read-outs that look alike come from different tables or passages of the source.

Protocol for lysosomal compartment: (A) VeroTA6 cells were seeded
post treatment, the cells were stained with lysotracker (Thermofisher, L7528) and visualized under
the microscope (left). The fluorescence intensity was captured and quantified for each treatment
B), the significance was calculated using one-way ANOVA with Dunnett’s test with multiple
comparison to the DMSO control, and the P values are depicted as ns for P>0.05, ** for P <0.01,

As for `CCN(CC)CCCC(C)Nc1ccnc2cc(Cl)ccc12` (centres unmarked) [CQ, Chloroquine], the “LysoTracker fluorescence intensity” value with lysosomal compartment (VeroTA6, 10 μM, 30 min) was “significant reduction in fluorescence intensity”. Besides, the Lysotracker with lysosomal compartment (sheet S5A, individual measurements) was 560.723 and 174.035 and 160.899 and 432.593 and 438.73 and 246.495 and 247.855 and 602.458 and 376.298 and 321.5 and 378.198 and 326.501 and 374.374 and 217.144 and 290.704 and 270.841 and 377.374 and 275.759 and 524.267 and 701.544 and 422.374.
The EC50 is the concentration at which the effect is half-maximal. `COC(=O)[C@H](CCSC)NC(=O)c1ccc(NC[C@@H](N)CS)cc1-c1ccccc1` [FTI-277]: the Replication is 89.119 and 77.5271 and 84.1138 and 103.187 in the data set with SARS-CoV-2-nLUC [1] (FTI-277, log concentration 0.670941); 92.4526 and 80.5819 and 108.059 and 113.995 in the data set with SARS-CoV-2-nLUC [1] (FTI-277, log concentration 1.273); 83.8498 and 84.554 and 94.5905 and 116.747 in the data set on SARS-CoV-2-nLUC [1] (FTI-277, log concentration 1.87506); 89.4553 and 85.664 and 88.5087 and 105.35 in the data set with SARS-CoV-2-nLUC [1] (FTI-277, log concentration -0.232149). The EC50 in the data set on SARS-CoV-2-nLUC [1] is 110 µM. Moreover, the “time-of-addition result” value with SARS-CoV-2 is “modest effect on the early stage of infection, while the efficacy was much higher in the late stage”. Moreover, the TOA was 1.616 and 2.237 and 1.147 and 1.155 and 1.238 and 1.196 and 1.435 in the data set with SARS-CoV-2 (treatment window (0,24)); 73.8837 and 74.2661 and 52.3189 and 51.5089 and 53.0507 and 54.4857 and 76.2725 and 76.8029 in the data set on SARS-CoV-2 (treatment window (2,4)); 151.258 and 149.655 and 121.084 and 123.07 and 140.174 and 141.115 and 96.719 and 94.1082 in the data set on SARS-CoV-2 (treatment window (-2,0)); 54.1321 and 53.7538 and 48.4664 and 48.121 and 49.0338 and 47.603 and 41.7688 and 40.1735 in the data set with SARS-CoV-2 (treatment window (-2,2)). Further, the “anti-FTase activity, HDJ2 shift” value in data set [2] is listed as “weaker anti-FTase activity”. In the data set “in vitro”, this compound showed a CC50 at 24 h of 220 µM.
As for `CN1CCC(N(Cc2cccs2)c2ccccc2)CC1` [NCGC00183847], the Max % in data set [3] is 64.0% and 54.6%. Further, the EC50 in [3] (read-out: EC50) is 11.4 µM and 18.4 µM. Besides, the CC50 in the data set on HEK293A2T2 cells and in the data set on Huh7 cells was above 30 µM in each case.
In [3], `Clc1ccc(C(c2ccccc2)N2CCNCC2)cc1` (centres unmarked) [NCGC00245963] yielded a Max % of 99.5%. For the same compound, the CC50 in the data set on HEK293A2T2 cells and in the data set with Huh7 cells was above 30 µM throughout.
For the compound `CN1CCN([C@H](c2ccccc2)c2ccc(Cl)cc2)CC1` [NCGC00343774], the Max % in data set [3] worked out at 66.4%. Further, the results for the CC50 with HEK293A2T2 cells and in the data set on Huh7 cells were above 30 µM and 14.4 µM, respectively.
`CN1CCN([C@@H](c2ccccc2)c2ccc(Cl)cc2)CC1` [NCGC00343775]: the Max % in data set [3] is 77.3%. For the same compound, the figures for the CC50 with HEK293A2T2 cells and with Huh7 cells were above 30 µM and 11.2 µM, respectively.
As for `Clc1ccc(C(c2ccccc2)N2CCNCC2)cc1` (centres unmarked) [NCGC00345880], the Max % in [3] was 99.6% and 75.2%. Besides, the CC50 in the data set on HEK293A2T2 cells was above 30 µM; in the data set on Huh7 cells, 13.4 µM.
In data set [3], `CCN1CCN(C(c2ccc(Cl)cc2)c2ccc(Cl)cc2)CC1` [NCGC00351414] displayed a Max % of 83.6%. In addition, the CC50 with HEK293A2T2 cells and in the data set with Huh7 cells was above 30 µM in each case.
Consider `CC(C)(C)[C@H](NC(=O)C(F)(F)F)C(=O)N1C[C@H]2[C@@H]([C@H]1C(=O)N[C@H](C#N)C[C@@H]1CCNC1=O)C2(C)C` [NRTV, nirmatrelvir], for which the Response with SARS-CoV-2-nLUC [4] was 96.7462 and 94.1773 and 94.981; with SARS-CoV-2-nLUC [4] (Lonafarnib 0 uM, Nirmatrelvir 0.3125 uM, sheet S3B, replicates), 50.9786 and 35.7701 and 31.2174; in the data set with SARS-CoV-2-nLUC [4] (Lonafarnib 0 uM, Nirmatrelvir 0.625 uM, sheet S3B, replicates), 89.9445 and 77.1784 and 77.0959; in the data set with SARS-CoV-2-nLUC [4] (Lonafarnib 0 uM, Nirmatrelvir 2.5 uM, sheet S3B, replicates), 97.3124 and 96.7918 and 96.5986; in the data set on SARS-CoV-2-nLUC [4] (Lonafarnib 0 uM, Nirmatrelvir 5 uM, sheet S3B, replicates), 97.4859 and 97.2147 and 96.9835; with SARS-CoV-2-nLUC [5], 21.0635 and 36.2768 and 23.2893.
Take `CCC(CC)COC(=O)[C@H](C)N[P@](=O)(OC[C@H]1O[C@@](C#N)(c2ccc3c(N)ncnn23)[C@H](O)[C@@H]1O)Oc1ccccc1` [RDV, Remdesivir]: the “composite clinical score” value in data set [6] is “much improved disease parameters”. In the data set on SARS-CoV-2, the “time-of-addition result” value is “minimal effect when added for a limited duration at early time points, but showed maximum efficacy when it was added later after infection”. Moreover, the “lung viral titer” value in [7] was “did not show much reduction in viral titers”.
Consider `CC1(C)CC(O)CC(C)(C)N1[O]` [TEMPOL], for which the “polymerase activity, primer extension” value on viral RdRp is “inhibited”.
Consider `Cn1cncc1[C@@](N)(c1ccc(Cl)cc1)c1ccc2c(c1)c(-c1cccc(Cl)c1)cc(=O)n2C` [Tipifarnib, tipifarnib], for which the concentration for a half-maximal effect (EC50) in the data set on SARS-CoV-2-nLUC [1] came out at 8.86 µM. The Replication with SARS-CoV-2-nLUC [1] (Tipifarnib, log concentration 0.273001) is 115.708 and 115.2 and 116.296 and 113.383; in the data set on SARS-CoV-2-nLUC [1] (Tipifarnib, log concentration 0.875061) it was 62.3306 and 62.0856 and 61.494 and 61.1331; in the data set on SARS-CoV-2-nLUC [1] (Tipifarnib, log concentration -0.630089), 101.05 and 102.091 and 101.412 and 103.944; with SARS-CoV-2-nLUC [1] (Tipifarnib, log concentration -1.23215), 100.484 and 100.389 and 101.92 and 99.313. Further, the “time-of-addition result” value in the data set on SARS-CoV-2 is “modest effect on the early stage of infection, while the efficacy was much higher in the late stage”. Besides, the TOA in the data set on SARS-CoV-2 (treatment window (0,2)) was 76.7425 and 75.484 and 113.203 and 99.7613 and 81.3458 and 84.3089 and 102.68 and 108.689; in the data set with SARS-CoV-2 (treatment window (-2,0)), 92.86 and 92.659 and 88.2304 and 87.5224 and 122.157 and 114.273 and 92.7843 and 93.347; with SARS-CoV-2 (treatment window (-2,2)), 31.6226 and 35.7452 and 33.0851 and 30.5839 and 34.705 and 34.7924 and 25.2067 and 23.5518. The same compound registered a CC50 at 24 h in “in vitro” above 30 µM.

Values taken from paper PMC11721293 (JCI Insight, 2025).
